This is an account of results in patent publication US4301177A, “(3-Methyl-2-butenyl)propanedioic acid mono (1,2-diphenylhydrazide) and salts thereof” (Istituto de Angeli S.p.A., priority 1979, dated 1981).

Structures can show the parent of a compound that is named as a salt. Where two headings read alike, the source gives them in different places.

In data set [1] the test system is rats. The format is in vivo, male Sprague-Dawley rats. The settings on record: 40 mg/kg oral. The protocol:
In the present study the test compounds were administered perorally by means of a stomach tube as an aqueous suspension in 5% acacia gum at a constant volume of 10 ml/kg to male Swiss mice and male Sprague-Dawley rats. Control rats and mice were given a corresponding volume of the aqueous suspension medium. The results were statistically evaluated by Dunnett's test (C. V. Dunnett.: J.A. Stat. Ass., 40, 1096, 1955).
1. Anti-inflammatory activity
The anti-inflammatory activity was determined in the carrageenin edema test according to Winter et al., (see C. A. Winter, E. A. Risley, G. W. Muss: J. Pharm. Exp. Ther., 141, 369, 1963).
The edema was provoked in rats by a subplantar injection into the right hind paw of 0.1 ml of a 1% carrageenin suspension in sterile saline solution.
Rats were treated orally with the test compound 60 minutes before the injection of carrageenin. The volume of the foot was measured with a mercury differential volume-meter immediately before injection of the phlogistic agent, and 3 and 5 hours thereafter. The anti-inflammatory activity was evaluated as percent edema inhibition of treated rats in comparison with the controls, according to the following formula: [formula]

The subject of data set [2] is rats. The experiment in a line: in vivo. The protocol:
(§1) In the present study the test compounds were administered perorally by means of a stomach tube as an aqueous suspension in 5% acacia gum at a constant volume of 10 ml/kg to male Swiss mice and male Sprague-Dawley rats. Control rats and mice were given a corresponding volume of the aqueous suspension medium.
(§2) The acute toxicity was determined on groups of 10 rats treated orally with 500, 1000, 1500 and 2000 mg/kg of the test compound by means of a stomach tube.

The nature of a further data set: in vivo. The following applies: rat, in vivo, po. The protocol:
as §1, §2

Turning to `CCCCC(C(=O)O)C(=O)N(Nc1ccccc1)c1ccccc1` (centres unmarked) [B, Calcium salt of butylpropanedioic acid mono(1,2-diphenylhydrazide), reference compound], the Edema volume, mean ± standard deviation in the data set with rats [1] (3 h after carrageenin) stood at 1.42 ± 0.27 mL; in the data set on rats [1] (5 h after carrageenin) it was 2.06 ± 0.42 mL.
Consider `CC(C)=CCC(C(=O)O)C(=O)N(Nc1ccccc1)c1ccccc1` (centres unmarked) [A, Calcium salt of (3-methyl-2-butenyl)propanedioic acid mono(1,2-diphenylhydrazide)], for which, in the data set on rats [2] (rat, in vivo, po), the LD50 confidence limits was in the range of 721.30 to 1550.51 mg/kg. Further, the “toxicity compared with prior art compound” value in the data set with rats [2] (summary, Table VII) is listed as “less toxic”. Further, the LD50 (as a rule, the dose at which mortality reaches 50%) at 168 h in “in vivo” was determined as 1060 mg/kg.
